Data on four molecules can be found in US8716246B2, “Azuvirin peptides” (The Regents of the University of California, priority 2011, dated 2014).

“Also recorded” adds a separate entry of the source. Bridge positions count the residues as written; N and C are the ends. Square brackets hold non-standard residues; d marks the D form. Ends that are not written are not given here. Peptide text beside a SMILES is read from it. * marks the point of attachment. Oic = O=C(O)[C@@H]1C[C@@H]2CCCC[C@@H]2N1; Cha = N[C@@H](CC1CCCCC1)C(=O)O; Tle = CC(C)(C)[C@H](N)C(=O)O; Nicotinoyl = O=C(c1cccnc1)*; Acm = CC(=O)NC*

Experiment [1] has as its target T1, rhEphB4 (Homo sapiens, UniProt P54760).
T1 construct: purchased R&D Systems, Inc., Minneapolis, Minn
T1 sequence (P54760 16-987): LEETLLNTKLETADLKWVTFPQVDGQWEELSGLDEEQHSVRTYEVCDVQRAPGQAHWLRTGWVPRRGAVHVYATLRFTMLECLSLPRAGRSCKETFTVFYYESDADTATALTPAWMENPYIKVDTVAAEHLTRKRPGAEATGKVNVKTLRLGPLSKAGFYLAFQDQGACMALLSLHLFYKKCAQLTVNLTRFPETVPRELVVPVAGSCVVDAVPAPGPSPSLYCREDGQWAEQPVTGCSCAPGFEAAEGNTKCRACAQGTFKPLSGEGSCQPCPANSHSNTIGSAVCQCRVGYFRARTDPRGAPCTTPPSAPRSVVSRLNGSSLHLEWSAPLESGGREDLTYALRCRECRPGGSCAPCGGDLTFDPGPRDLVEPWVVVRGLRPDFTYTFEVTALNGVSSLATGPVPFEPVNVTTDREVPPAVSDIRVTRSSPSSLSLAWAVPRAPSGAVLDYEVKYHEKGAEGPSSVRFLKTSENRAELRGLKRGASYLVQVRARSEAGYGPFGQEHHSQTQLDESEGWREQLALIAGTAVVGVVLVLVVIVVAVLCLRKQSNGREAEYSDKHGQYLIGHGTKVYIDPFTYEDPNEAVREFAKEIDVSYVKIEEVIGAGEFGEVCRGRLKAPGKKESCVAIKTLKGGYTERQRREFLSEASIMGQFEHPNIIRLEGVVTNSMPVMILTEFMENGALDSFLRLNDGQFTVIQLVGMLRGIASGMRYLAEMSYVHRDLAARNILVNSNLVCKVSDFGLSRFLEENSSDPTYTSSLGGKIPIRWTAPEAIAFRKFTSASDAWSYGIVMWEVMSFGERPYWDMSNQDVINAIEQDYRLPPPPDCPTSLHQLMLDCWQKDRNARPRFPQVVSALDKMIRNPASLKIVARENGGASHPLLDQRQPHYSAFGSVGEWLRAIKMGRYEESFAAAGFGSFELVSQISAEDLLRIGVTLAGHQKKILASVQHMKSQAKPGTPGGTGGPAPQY
The experiment in a line: SPR binding to immobilized rhEphB4 (Biacore 3000). As to conditions: SPR; averaged from at least 4 independent experiments; read-out: KD ± SEM, rhEphB4. How it is done: (§1) Binding to selected ephrin receptors was measured by surface plasmon resonance on a Biacore3000 instrument. Commercially available ephrin receptors: EphA2, EphB2 and EphB4 (R&D Systems) were immobilized on a CM-5 chip by amine coupling and tested peptides were passed over a chip surface as analytes.
(§2) Binding studies. Binding studies were performed by surface plasmon resonance (SPR) on a BIAcore 3000 system (BiaCore AB, Piscataway, N.J.). BIAcore CM5 sensor chips were utilized in all experiments. Binding studies were performed in HBS-EP running buffer (pH=7.4) containing 10 mM HEPES, 150 mM NaCl, 3 mM EDTA, and 0.005% polysorbate 20. Commercially available ephrin receptors: EphA2, EphB2 and EphB4 (R&D Systems, Inc., Minneapolis, Minn.) were immobilized on a CM5 sensor chip using the amine coupling method. The chip was activated by mixing 400 mM N-ethyl-N-(3-dimethylaminopropyl)-carbodiimide hydrochloride and 100 mM N-hydroxysuccinimide. Residual reactive groups on the chip surface were blocked using 1.0 M ethanolamine/HCl (pH=8.5). The flow cell-1 chip, which served as a control, lacked immobilized protein but was treated with N-ethyl-N-(3-dimethylaminopropyl)-carbodiimide hydrochloride, N hydroxysuccinimide, and ethanolamine/HCl. Binding signals were corrected for nonspecific binding by subtracting the flow cell-1 signal (blank surface). To regenerate chip surfaces, bound ligands were removed with 10 mM HCl. Data were analyzed with BIAevaluation 4.1 software (Biacore, Piscataway, N.J.).
In general terms: In SPR one partner is held on a chip, and binding of the other changes the refractive index at the surface.

Experiment [2] has as its system Lewis lung carcinoma (LLC). The experiment in a line: Artificial metastasis model: i.v. Lewis lung carcinoma plus local thoracic irradiation, lung tumor nodules counted. The experiment is classed as in vivo, C57BL/6 mice. As to conditions: for tumor colonies lower / radiation efficacy improved versus radiation alone: Example 1: 500 μg (~10 mg/kg) total i.p. in 4 daily doses 60 min before 4 Gy thoracic irradiation, equimolar controls, nodules day 14; for radiosensitizing effect in artificial metastasis model (in words): with radiation therapy (4 x 4 Gy), peptide or equimolar nicotinamide i.p. from day 4 after i.v. LLC. How it is done: The AzV-36-Nic conjugate was tested in vivo for its ability to radiosensitize Lewis lung carcinoma (LCC) in an artificial metastasis model. Briefly, C57BL/6 mice (8 weeks old) were intravenously injected with 5×10^5 cells of syngeneic LLC. Various treatments were initiated 4 days later, after cancer engraftment. In general, each animal received intraperitoneally a total of 500 μg (˜10 mg/kg) of peptide in 4 daily doses 60 mins before local thoracic irradiation (4 Gy). Animals were sacrificed on the 14th day of the experiment and lung tumor nodules were counted.
Animal experiments. Briefly, C57BL/6 mice (8 weeks old) were intravenously injected with 5×10^5 cells of syngeneic LLC. Various treatments were initiated 4 days later, after cancer engraftment. In general, each animal received intraperitoneally a total of 500 μg (˜10 mg/kg) of peptide in 4 daily doses 60 min before local thoracic irradiation (4 Gy). Animals were sacrificed on the 14th day of the experiment and lung tumor nodules were counted.
Animal experiments. C57BL/6 gnotobiotic mice (8 weeks old) were obtained from the UCLA AALAC accredited Department of Radiation Oncology Facility and intravenously injected with 5×10^5 cells of syngeneic LLC. Various treatments were initiated 4 days later, after cancer engraftment. In general, each animal received intraperitoneally a total of 500 μg (˜25 mg/kg) of peptide (or equimolar amount of nicotinamide) in 4 daily doses 60 min before local thoracic irradiation (0 or 4 Gy, total dose: 4.4=16 Gy) that was delivered using an Atomic Energy of Canada cesium gamma irradiator with a dose rate of approximately 0.6 Gy/min with the rest of the body shielded. Prior to irradiation animals were anesthetized by intraperitoneal injection of ketamine/xylazine mixture. Animals were sacrificed on the 14th day of the experiment and lung tumor nodules were counted. All experiments were approved by the UCLA Animal Care and Use Committee and conformed to local and national guidelines.

Experiment [3] has as its target rhEphA2 (Homo sapiens, UniProt P29317). Description: SPR binding to immobilized rhEphA2 (Biacore 3000). Set-up: purchased R&D Systems, Inc., Minneapolis, Minn. As to conditions: SPR; averaged from at least 4 independent experiments; read-out: KD ± SEM, rhEphA2. How it is done: as §1, §2
Experiment [4] addresses rhEphB2/Fc (Homo sapiens, UniProt P29323). The experiment in a line: SPR binding to immobilized rhEphB2/Fc (Biacore 3000). Set-up: Fc; purchased R&D Systems, Inc., Minneapolis, Minn. As to conditions: SPR; averaged from at least 4 independent experiments; read-out: KD ± SEM, rhEphB2/Fc. The protocol:
as §1, §2

Turning to `C[C@@H](O)[C@@H]1NC(=O)[C@H](CCCNC(=N)N)NC(=O)[C@H](Cc2c[nH]cn2)NC(=O)[C@@H](CCCNC(=N)N)NC(=O)[C@@H]2C[C@@H]3CCCC[C@@H]3N2C(=O)[C@H](CC2CCCCC2)NC(=O)[C@H](C(C)(C)C)NC(=O)[C@@H](NC(=O)[C@H](CC2CCCCC2)NC(=O)[C@H](CC2CCCCC2)NC(=O)[C@@H](CCCCN)NC(=O)[C@@H](N)Cc2ccc(O)cc2)CSSC[C@@H](C(=O)N[C@H](CCCCN)C(N)=O)NC(=O)[C@H](CC2CCCCC2)NC1=O` [AzV36, Yk-Cha-Cha-Cys-Tle-Cha-Oic-rHRT-Cha-Cys-k-CONH] (H-Y[dK][Cha][Cha]C[Tle][Cha][Oic][dR]HRT[Cha]C[dK]-NH2; disulfide 5-14; N-terminus assumed), the figures for the Kd in experiment [1], in experiment [3] and in experiment [4] were 106 ± 15 nM, 126 ± 11 nM and 164 ± 11 nM, respectively. In addition, the “tumor colonies lower / radiation efficacy improved versus radiation alone” value in experiment [2] came out at 1.3 fold.

On to `CC(=O)NCSC[C@H](NC(=O)[C@H](CC1CCCCC1)NC(=O)[C@H](CC1CCCCC1)NC(=O)[C@@H](CCCCN)NC(=O)[C@@H](N)Cc1ccc(O)cc1)C(=O)N[C@H](C(=O)N[C@@H](CC1CCCCC1)C(=O)N1[C@H](C(=O)N[C@H](CCCNC(=N)N)C(=O)N[C@@H](Cc2c[nH]cn2)C(=O)N[C@@H](CCCNC(=N)N)C(=O)N[C@H](C(=O)N[C@@H](CC2CCCCC2)C(=O)N[C@@H](CSCNC(C)=O)C(=O)N[C@H](CCCCN)C(N)=O)[C@@H](C)O)C[C@@H]2CCCC[C@@H]21)C(C)(C)C` [AzV36-L] (H-Y[dK][Cha][Cha]C(Acm)[Tle][Cha][Oic][dR]HRT[Cha]C(Acm)[dK]-NH2; N-terminus assumed), for which the “radiosensitizing effect in artificial metastasis model (in words)” value in experiment [2] is listed as “no or minimal radiosensitizing effect; also recorded: only marginally improved radiation efficacy; also recorded: ineffective”.

As for `NC(=O)c1cccnc1` [nicotinamide, reference compound], the results for the “radiosensitizing effect in artificial metastasis model (in words)” value in experiment [2] and in experiment [2] (listed as Nic) were “no or minimal radiosensitizing effect; also recorded: only marginally improved radiation efficacy” and “ineffective”, respectively.

On to “AzV-36-Nic: Example 1: AzV-36 conjugated with nicotinic acid via amide bond; linear, 15 residues; probably AzV36-NicL (Y[dK](Nicotinoyl)[Cha][Cha]C[Tle][Cha][Oic][dR]HRT[Cha]C[dK]-NH2; not fully specified (bridges); printed as YkNic-Cha-Cha-Cys-Tle-Cha-Oic-rHRT-Cha-Cys-k-CONH; cysteine pairing not given here)”, for which the “tumor colonies lower / radiation efficacy improved versus radiation alone” value in experiment [2] is reported as 3-10 fold.
